From US8580811B2 (Ligand Pharmaceuticals Incorporated, priority 2005, dated 2013)
Where two headings read alike, the source gives them in different places.

Biological target: T1, human AR (Homo sapiens, UniProt P10275)
T1 construct: expressed in transfected cells; host or cells: COS-1 cells
T1 sequence (P10275 1-920): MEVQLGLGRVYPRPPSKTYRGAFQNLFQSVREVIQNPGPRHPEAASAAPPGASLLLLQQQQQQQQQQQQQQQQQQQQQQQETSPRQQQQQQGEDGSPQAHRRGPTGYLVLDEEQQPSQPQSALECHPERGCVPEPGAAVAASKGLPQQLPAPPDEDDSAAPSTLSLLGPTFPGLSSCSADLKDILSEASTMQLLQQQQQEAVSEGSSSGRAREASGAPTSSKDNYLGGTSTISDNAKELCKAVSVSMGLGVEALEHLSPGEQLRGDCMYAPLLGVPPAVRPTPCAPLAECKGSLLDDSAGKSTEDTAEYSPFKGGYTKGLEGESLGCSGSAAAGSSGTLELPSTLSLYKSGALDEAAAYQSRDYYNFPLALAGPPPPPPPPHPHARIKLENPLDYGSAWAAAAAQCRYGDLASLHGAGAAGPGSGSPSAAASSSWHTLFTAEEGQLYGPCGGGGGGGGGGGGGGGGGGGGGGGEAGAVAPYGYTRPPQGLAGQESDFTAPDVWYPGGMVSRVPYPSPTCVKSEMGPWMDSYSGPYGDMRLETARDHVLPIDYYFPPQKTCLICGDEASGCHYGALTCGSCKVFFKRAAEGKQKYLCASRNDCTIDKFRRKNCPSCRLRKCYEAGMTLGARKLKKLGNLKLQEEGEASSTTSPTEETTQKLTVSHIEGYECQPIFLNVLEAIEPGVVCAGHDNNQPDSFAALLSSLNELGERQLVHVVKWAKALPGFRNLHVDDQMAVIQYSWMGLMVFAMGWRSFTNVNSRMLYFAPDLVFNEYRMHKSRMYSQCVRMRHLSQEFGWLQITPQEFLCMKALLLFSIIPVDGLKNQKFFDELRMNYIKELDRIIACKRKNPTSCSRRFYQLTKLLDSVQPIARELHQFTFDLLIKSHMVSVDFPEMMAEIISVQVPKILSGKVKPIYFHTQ
Test: IR Binding Assay: whole cell competitive binding of test compounds against 3H-DHT in COS-1 cells transfected with pRShAR
Summary of the method: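 COS-1 cells transfected with pRShAR plus β-Gal reporter, serum-starved 24 h, then exposed to 1 nM ³H-DHT with compounds at 10^−10 to 10^−6 M for 3 h at 37 °C. Bound ³H-DHT counted in lysates, normalized to β-Gal. IC50 from log-logit plot; Ki via Cheng-Prusoff using Kd from Scatchard saturation analysis.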

Row | SMILES | Ki [nM] | Ki (competition with 1 nM 3H-DHT, transfected COS-1 cells, 3 h at 37° C., Cheng-Prusoff from IC50, read-out: Ki) [nM]
1 | CCc1c(-c2ccccc2)n(CC(F)(F)F)c2ccc3[nH]c(=O)cc(Cl)c3c12 [Compound 203, 9-Chloro-1-ethyl-2-phenyl-3-(2,2,2-trifluoroethyl)-3,6-dihydro-pyrrolo[3,2-f]quinolin-7-one] | < 5 | –
2 | CCC1C(C)c2c(ccc3[nH]c(=O)cc(C(F)(F)F)c23)N1CC(F)(F)Cl (racemic) [Compound 178, (±)-3-(2-Chloro-2,2-difluoroethyl)-2-ethyl-1-methyl-9-trifluoromethyl-1,2,3,6-tetrahydro-pyrrolo[3,2-f]quinolin-7-one] | < 5 | –
3 | Cc1c(CO)n(CC(F)(F)F)c2ccc3[nH]c(=O)cc(Cl)c3c12 [Compound 230, 9-Chloro-2-hydroxymethyl-1-methyl-3-(2,2,2-trifluoro-ethyl)-3,6-dihydro-pyrrolo[3,2-f]-quinolin-7-one] | > 10 | –
4 | Cc1c(C)n(CC(F)(F)C(F)(F)F)c2ccc3[nH]c(=O)cc(C(F)(F)F)c3c12 [Compound 219, 1,2-Dimethyl-3-(2,2,3,3,3-pentafluoropropyl)-9-trifluoromethyl-3,6-dihydro-pyrrolo[3,2-f]-quinolin-7-one] | < 5 | –
5 | CC1c2c(ccc3[nH]c(=O)cc(Cl)c23)N(CC(F)(F)C(F)(F)F)C1c1ccccc1 (racemic) [Compound 171, (±)-9-Chloro-1-methyl-3-(2,2,3,3,3-pentafluoropropyl)-2-phenyl-1,2,3,6-tetrahydro-pyrrolo[3,2-f]quinolin-7-one] | > 10 | –
6 | Cc1c(C)n(CCC(C)(C)O)c2ccc3[nH]c(=O)cc(C(F)(F)F)c3c12 [Compound 239, 3-(3-Hydroxy-3-methyl-butyl)-1,2-dimethyl-9-trifluoromethyl-3,6-dihydro-pyrrolo[3,2-f]-quinolin-7-one] | > 10 | –
7 | CC1c2c(cc(F)c3[nH]c(=O)cc(Cl)c23)N(CC(F)(F)F)C1C (racemic) [Compound 151, (±)-9-Chloro-1,2-dimethyl-5-fluoro-3-(2,2,2-trifluoro-ethyl)-1,2,3,6-tetrahydro-pyrrolo[3,2-f]quinolin-7-one] | < 5 | –
8 | CCc1c(C)c2c3c(Cl)cc(=O)[nH]c3ccc2n1CC(O)C(F)(F)F (racemic) [Compound 232, (±)-9-Chloro-2-ethyl-1-methyl-3-(3,3,3-trifluoro-2-hydroxy-propyl)-3,6-dihydro-pyrrolo[3,2-f]quinolin-7-one] | < 5 | –
9 | Cc1c(-c2ccccn2)n(C[C@H](O)C(F)(F)F)c2ccc3[nH]c(=O)cc(Cl)c3c12 [Compound 275, (S)-9-Chloro-1-methyl-2-(2-pyridyl)-3-(3,3,3-trifluoro-2-hydroxy-propyl)-3,6-dihydro-pyrrolo[3,2-f]quinolin-7-one] | 5 to 10 | –
10 | Cc1c(-c2cccc([N+](=O)[O-])c2)n(CC(F)(F)F)c2ccc3[nH]c(=O)cc(Cl)c3c12 [Compound 205, 9-Chloro-1-methyl-2-(3-nitrophenyl)-3-(2,2,2-trifluoroethyl)-3,6-dihydro-pyrrolo[3,2-f]quinolin-7-one] | 5 to 10 | –
11 | Cc1c(C)n(CCO)c2ccc3[nH]c(=O)cc(Cl)c3c12 [Compound 190, 9-Chloro-3-(2-hydroxy-ethyl)-1,2-dimethyl-3,6-dihydro-pyrrolo[3,2-f]quinolin-7-one] | > 10 | –
12 | Cc1c(-c2ccc(F)cc2F)n(CC(F)(F)F)c2ccc3[nH]c(=O)cc(Cl)c3c12 [Compound 200, 9-Chloro-2-(2,4-difluorophenyl)-1-methyl-3-(2,2,2-trifluoroethyl)-3,6-dihydro-pyrrolo[3,2-f]-quinolin-7-one] | < 5 | –
13 | CC1c2c(ccc3[nH]c(=O)cc(Cl)c23)N(CC(C)(C)C)C1C (racemic) [Compound 141, (±)-9-Chloro-1,2-dimethyl-3-(2,2-dimethylpropyl)-1,2,3,6-tetrahydro-pyrrolo[3,2-f]quinolin-7-one] | 5 to 10 | –
14 | Cc1c(C)n(C[C@H](O)C(F)(F)F)c2ccc3[nH]c(=O)cc(C(F)(F)F)c3c12 [Compound 245, (−)-1,2-Dimethyl-3-(3,3,3-trifluoro-2-hydroxy-propyl)-9-trifluoromethyl-3,6-dihydro-pyrrolo[3,2-f]-quinolin-7-one] | > 10 | –
15 | Cc1c(-c2ccccc2)n(CC(F)(F)C(F)(F)F)c2ccc3[nH]c(=O)cc(Cl)c3c12 [Compound 218, 9-Chloro-1-methyl-3-(2,2,3,3,3-pentafluoropropyl)-2-phenyl-3,6-dihydro-pyrrolo[3,2-f]-quinolin-7-one] | < 5 | –
16 | CC1c2c(ccc3[nH]c(=O)cc(Cl)c23)N(CC(F)(F)Cl)C1C (racemic) [Compound 138, (±)-9-Chloro-3-(2-chloro-2,2-difluoro-ethyl)-1,2-dimethyl-1,2,3,6-tetrahydro-pyrrolo[3,2-f]-quinolin-7-one] | < 5 | –
17 | Cc1c(C)n(CC(O)CO)c2ccc3[nH]c(=O)cc(Cl)c3c12 (stereo not drawn) [Compound 290, 9-Chloro-3-(2,3-dihydroxypropyl)-1,2-dimethyl-3,6-dihydro-pyrrolo[3,2-f]-quinolin-7-one] | > 10 | –
18 | CC1c2c(ccc3[nH]c(=O)cc(Cl)c23)N(CC(F)(F)C(F)(F)F)C1C (racemic) [Compound 167, (±)-9-Chloro-1,2-dimethyl-3-(2,2,3,3,3-pentafluoropropyl)-1,2,3,6-tetrahydro-pyrrolo[3,2-f]-quinolin-7-one] | < 5 | –
19 | Cc1cn(CC(F)(F)F)c2ccc3[nH]c(=O)cc(Cl)c3c12 [Compound 211, 9-Chloro-1-methyl-3-(2,2,2-trifluoroethyl)-3,6-dihydro-pyrrolo[3,2-f]quinolin-7-one] | 5 to 10 | –
20 | CC1c2c(ccc3[nH]c(=O)cc(C(F)(F)F)c23)N(CC(F)(F)C(F)(F)F)C1C (racemic) [Compound 173, (±)-1,2-Dimethyl-3-(2,2,3,3,3-pentafluoropropyl)-9-trifluoromethyl-1,2,3,6-tetrahydro-pyrrolo[3,2-f]quinolin-7-one] | < 5 | –
21 | CC1c2c(ccc3[nH]c(=O)cc(C(F)(F)F)c23)N(CCC(F)(F)F)C1C (racemic) [Compound 174, (±)-1,2-Dimethyl-9-trifluoromethyl-3-(3,3,3-trifluoropropyl)-1,2,3,6-tetrahydro-pyrrolo[3,2-f]quinolin-7-one] | < 5 | –
22 | Cc1c(-c2ccc(Cl)cc2)[nH]c2ccc3[nH]c(=O)cc(Cl)c3c12 [Compound 118, 9-Chloro-2-(4-chlorophenyl)-1-methyl-3,6-dihydro-pyrrolo[3,2-f]quinolin-7-one] | < 5 | –
23 | Cc1c(C)n(CC(F)(F)Cl)c2ccc3[nH]c(=O)cc(C(F)(F)F)c3c12 [Compound 220, 1,2-Dimethyl-3-(2-chloro-2,2-difluoroethyl)-9-trifluoromethyl-3,6-dihydro-pyrrolo[3,2-f]-quinolin-7-one] | < 5 | –
24 | Cc1c(-c2ccncc2)n(C[C@H](O)C(F)(F)F)c2ccc3[nH]c(=O)cc(Cl)c3c12 [Compound 273, (S)-9-Chloro-1-methyl-2-(4-pyridyl)-3-(3,3,3-trifluoro-2-hydroxy-propyl)-3,6-dihydro-pyrrolo[3,2-f]quinolin-7-one] | > 10 | –
25 | Cc1c(C)n(C[C@@H](O)CO)c2ccc3[nH]c(=O)cc(C(F)(F)F)c3c12 [Compound 296, (R)-3-(2,3-dihydroxypropyl)-1,2-dimethyl-9-trifluoromethyl-3,6-dihydro-pyrrolo[3,2-f]-quinolin-7-one] | > 10 | –
26 | Cc1c(C)n(CCCC(F)(F)F)c2ccc3[nH]c(=O)cc(C(F)(F)F)c3c12 [Compound 227, 1,2-Dimethyl-3-(4,4,4-trifluorobutyl)-9-trifluoromethyl-3,6-dihydro-pyrrolo[3,2-f]-quinolin-7-one] | < 5 | –
27 | Cc1c(-c2ccc(Cl)cc2)n(CC(F)(F)F)c2ccc3[nH]c(=O)cc(Cl)c3c12 [Compound 206, 9-Chloro-2(4-chlorophenyl)-1-methyl-3-(2,2,2-trifluoroethyl)-3,6-dihydro-pyrrolo[3,2-f]quinolin-7-one] | – | > 10
28 | CC(=O)OCCn1c(C)c(C)c2c3c(C(F)(F)F)cc(=O)[nH]c3ccc21 [Compound 241, 3-(2-Acetoxyethyl)-1,2-Dimethyl-9-trifluoromethyl-3,6-dihydro-pyrrolo[3,2-f]quinolin-7-one] | 5 to 10 | –
29 | Cc1c(C)n(CC(F)(F)F)c2cc(F)c3[nH]c(=O)cc(Cl)c3c12 [Compound 195, 9-Chloro-1,2-dimethyl-5-fluoro-3-(2,2,2-trifluoroethyl)-3,6-dihydro-pyrrolo[3,2-f]quinolin-7-one] | < 5 | –
30 | Cc1ccc(-c2c(C)c3c4c(Cl)cc(=O)[nH]c4ccc3n2CC(F)(F)F)cc1 [Compound 204, 9-Chloro-1-methyl-2-(4-methylphenyl)-3-(2,2,2-trifluoroethyl)-3,6-dihydro-pyrrolo[3,2-f]-quinolin-7-one] | < 5 | –
